The record followed here is patent US4060611A, “3-Carbamylbenzyl-7-(phenylglycyl)amino cephalosporin derivatives” (Beecham Group Limited, priority 1975, dated 1977).

Structures are written as SMILES. ≈ marks a conversion by molar mass, not a printed value.

What all share (format): cell-based
In experiment [1] the test system is β-haemolytic strep. CN10. Nature of the experiment: MIC, growth inhibition on nutrient agar. The conditions noted are these: nutrient agar (medium not given for Examples 6, 7), read-out: minimum inhibitory concentration (MIC).
For experiment [2], the system named is Staph. aureus Oxford. Nature of the experiment: MIC, growth inhibition on nutrient agar. The note with it: Staphylococcus aureus, nutrient agar (medium not given for Examples 6, 7), read-out: minimum inhibitory concentration (MIC).
Experiment [3] concerns P. rettgeri. Nature of the experiment: MIC, growth inhibition on nutrient agar. The conditions noted are these: Providencia rettgeri, nutrient agar (medium not given for Examples 6, 7), read-out: minimum inhibitory concentration (MIC).
In experiment [4] the test system is Salm. typhi. Nature of the experiment: MIC, growth inhibition on nutrient agar. The conditions noted are these: Salmonella enterica, read-out: minimum inhibitory concentration (MIC).
The subject of experiment [5] is Klebsiella aerogenes A. Nature of the experiment: MIC, growth inhibition on nutrient agar. The note with it: nutrient agar (medium not given for Examples 6, 7), read-out: minimum inhibitory concentration (MIC).
The test system of experiment [6] is Staph. aureus Russell. Nature of the experiment: MIC, growth inhibition on nutrient agar. The conditions noted are these: Staphylococcus aureus, nutrient agar (medium not given for Examples 6, 7), read-out: minimum inhibitory concentration (MIC).
The test system of experiment [7] is E. coli JT1. Nature of the experiment: MIC, growth inhibition on nutrient agar. The note with it: Escherichia coli, nutrient agar (medium not given for Examples 6, 7), read-out: minimum inhibitory concentration (MIC).
In experiment [8] the test system is B. subtilis. Nature of the experiment: MIC, growth inhibition on nutrient agar. The conditions noted are these: Bacillus subtilis, nutrient agar (medium not given for Examples 6, 7), read-out: minimum inhibitory concentration (MIC).
Experiment [9] deals with Enterobacter cloacae N1. Nature of the experiment: MIC, growth inhibition on nutrient agar. The note with it: nutrient agar (medium not stated for Example 6), read-out: minimum inhibitory concentration (MIC).
Experiment [10] relates to Shig. sonnei. Nature of the experiment: MIC, growth inhibition on nutrient agar. The note with it: Shigella sonnei, read-out: minimum inhibitory concentration (MIC).
Experiment [11] has as its system P. mirabilis C977. Nature of the experiment: MIC, growth inhibition on nutrient agar. The note with it: Proteus mirabilis, nutrient agar (medium not given for Examples 6, 7), read-out: minimum inhibitory concentration (MIC).
Experiment [12] has as its system P. mirabilis 889. Nature of the experiment: MIC, growth inhibition on nutrient agar. The conditions noted are these: Proteus mirabilis, read-out: minimum inhibitory concentration (MIC).
Experiment [13] has as its system P. mirabilis 899. Nature of the experiment: MIC, growth inhibition on nutrient agar. The conditions noted are these: Proteus mirabilis, read-out: minimum inhibitory concentration (MIC).
For experiment [14], the system named is P. morganii. Nature of the experiment: MIC, growth inhibition. The note with it: Morganella morganii, medium not stated, read-out: minimum inhibitory concentration (MIC).

In the case of `NC(=O)c1ccc(CC2=C(C(=O)O)N3C(=O)[C@@H](NC(=O)C(C(=O)Oc4ccccc4)c4ccccc4)[C@H]3SC2)cc1` (mixture of isomers) [Example 3, 3-(p-Carbamoylbenzyl)-7β-(DL-α-phenoxycarbonylphenylacetamido)ceph-3-em-4-carboxylic acid], the MIC in [1] worked out at 1 µg/mL; in [2], 1 µg/mL; in [3], 5 µg/mL; in [4], 10 µg/mL; in experiment [5], 10 µg/mL; in [6], 10 µg/mL. Further, the MIC was found to be 5 µg/mL in [7]; 10 µg/mL in experiment [8]; 10 µg/mL in experiment [9]; 5 µg/mL in experiment [10]; 5 µg/mL in experiment [11].

`NC(=O)c1ccc(CC2=C(C(=O)O)N3C(=O)[C@@H](NC(=O)C(C(=O)Oc4ccccc4)c4ccsc4)[C@H]3SC2)cc1` (mixture of isomers) [Example 6, 3-(p-Carbamoylbenzyl)-7β-(DL-α-phenoxycarbonyl-3^1-thienylacetamido)ceph-3-em-4-carboxylic acid]: the MIC worked out at 25 µg/mL in [1]; 12.5 µg/mL in [2]; 5 µg/mL in [3]; 2.5 µg/mL in [5]; 25 µg/mL in experiment [6]; 5 µg/mL in experiment [7]. In addition, the MIC in [8] is 25 µg/mL; in [9] it was 12.5 µg/mL; in experiment [11], 12.5 µg/mL.

`NC(=O)c1ccc(CC2=C(C(=O)O)N3C(=O)[C@@H](NC(=O)[C@H](N)c4ccccc4)[C@H]3SC2)cc1` [Example 1, 3-(p-Carbamoylbenzyl)-7β-(D-α-phenylglycyl)amino-ceph-3-em-4-carboxylic acid]: the MIC in experiment [1] was 0.01 µg/mL (≈ 0.0214 µM); in experiment [2], 0.1 µg/mL (≈ 0.214 µM); in experiment [4], 2.5 µg/mL (≈ 5.36 µM); in experiment [5], 1 µg/mL (≈ 2.14 µM); in experiment [6], 2.5 µg/mL (≈ 5.36 µM); in experiment [7], 2.5 µg/mL (≈ 5.36 µM). The MIC was determined as 0.1 µg/mL (≈ 0.214 µM) in experiment [8], 2.5 µg/mL (≈ 5.36 µM) in experiment [12] and 2.5 µg/mL (≈ 5.36 µM) in [10].

On to `NC(=O)c1ccc(CC2=C(C(=O)O)N3C(=O)[C@@H](NC(=O)[C@H](N)c4ccc(O)cc4)[C@H]3SC2)cc1` [Example 2, 3-(p-Carbamoylbenzyl)-7β-(D-α-p-hydroxyphenylglycyl)amino-ceph-3-em-4-carboxylic acid], for which the MIC in experiment [1] worked out at 0.02 µg/mL (≈ 0.0414 µM); in experiment [2], 0.1 µg/mL (≈ 0.207 µM); in experiment [4] it was 0.5 µg/mL (≈ 1.04 µM); in experiment [5], 1 µg/mL (≈ 2.07 µM); in experiment [6], 1 µg/mL (≈ 2.07 µM); in experiment [7], 2.5 µg/mL (≈ 5.18 µM). Further, the MIC in experiment [8] came out at 0.25 µg/mL (≈ 0.518 µM); in experiment [13] it was 5 µg/mL (≈ 10.4 µM); in [10] it was 2.5 µg/mL (≈ 5.18 µM); in experiment [11], 2.5 µg/mL (≈ 5.18 µM).

Take `NC(=O)c1cccc(CC2=C(C(=O)O)N3C(=O)[C@@H](NC(=O)[C@H](N)c4ccccc4)[C@H]3SC2)c1` [Example 4, 3-(m-Carbamoylbenzyl)-7β-(D-α-phenylglycyl)amino-ceph-3-em-4-carboxylic acid]: the MIC in experiment [1] stood at 0.05 µg/mL (≈ 0.107 µM); in experiment [2], 0.1 µg/mL (≈ 0.214 µM); in experiment [4] it was 10 µg/mL (≈ 21.4 µM); in experiment [5], 5 µg/mL (≈ 10.7 µM); in experiment [6], 2.5 µg/mL (≈ 5.36 µM); in experiment [8], 0.1 µg/mL (≈ 0.214 µM). Besides, the MIC in [12] was found to be 10 µg/mL (≈ 21.4 µM).

Regarding `NC(=O)c1cc(CC2=C(C(=O)O)N3C(=O)[C@@H](NC(=O)[C@H](N)c4ccccc4)[C@H]3SC2)cc(C(N)=O)c1` [Example 5, 3-(3,5-dicarbamoylbenzyl)-7β-(D-α-phenylglycyl)amino-ceph-3-em-4-carboxylic acid], the MIC was found to be 0.5 µg/mL (≈ 0.981 µM) in [1]; 0.5 µg/mL (≈ 0.981 µM) in [2]; 10 µg/mL (≈ 19.6 µM) in [4]; 5 µg/mL (≈ 9.81 µM) in experiment [5]; 5 µg/mL (≈ 9.81 µM) in experiment [6]; 2.5 µg/mL (≈ 4.91 µM) in experiment [8]. In experiment [10], the MIC came out at 10 µg/mL (≈ 19.6 µM).

As to `CN(C(=O)C=Cc1ccccc1)C(=O)N[C@@H](C(=O)N[C@@H]1C(=O)N2C(C(=O)O)=C(Cc3ccc(C(N)=O)cc3)CS[C@H]12)c1ccccc1` [Example 7, 3-(p-Carbamoylbenzyl)-7β-[D-α-(3-cinnamoyl-3-methyluriedo)phenylacetamido]ceph-3-em-4-carboxylic acid], the MIC in experiment [1] is 0.05 µg/mL (≈ 0.0765 µM); in [2], 0.1 µg/mL (≈ 0.153 µM); in experiment [3], 12.5 µg/mL (≈ 19.1 µM); in experiment [14] it was 5 µg/mL (≈ 7.65 µM); in experiment [5] it was 5 µg/mL (≈ 7.65 µM); in experiment [6], 12.5 µg/mL (≈ 19.1 µM). Moreover, the MIC in experiment [7], in [8] and in experiment [11] was 5 µg/mL (≈ 7.65 µM) throughout.
